# Experimental data: patent publication US10513521B2, “Compositions and methods for inhibiting BMP” (The Brigham and Women's Hospital, Inc., priority 2014, dated 2019)
# Several values for one entry are separate records, joined by “and”; a condition that tells them apart may be missing. Equal values may be shown once.
# Target: T1, ALK2 (Mus musculus, UniProt P37172)
# T1 construct: The C2C12 cell line was selected for the measurement of ALK2 activity using BMP6 as the agonist; host or cells: C2C12
# T1 sequence (P37172 21-509): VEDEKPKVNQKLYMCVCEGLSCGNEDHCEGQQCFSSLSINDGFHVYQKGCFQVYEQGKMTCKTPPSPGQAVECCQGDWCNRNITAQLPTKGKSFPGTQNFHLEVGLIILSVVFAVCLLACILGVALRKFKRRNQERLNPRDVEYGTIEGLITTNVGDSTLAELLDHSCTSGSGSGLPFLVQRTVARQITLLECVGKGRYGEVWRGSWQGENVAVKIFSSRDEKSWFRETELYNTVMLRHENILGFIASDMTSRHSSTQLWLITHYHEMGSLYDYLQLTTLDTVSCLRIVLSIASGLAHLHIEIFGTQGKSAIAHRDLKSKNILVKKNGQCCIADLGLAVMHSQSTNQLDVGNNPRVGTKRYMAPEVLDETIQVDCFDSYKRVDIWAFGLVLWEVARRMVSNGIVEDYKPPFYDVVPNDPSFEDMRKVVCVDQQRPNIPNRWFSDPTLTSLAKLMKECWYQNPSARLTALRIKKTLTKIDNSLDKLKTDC
# Assay: In-cell Western ALK2 assay (C2C12 cells, BMP6 as agonist)
# Assay type: cell-based
# Settings: read-out: BMP6 ICW
# From the text: 3. In-Cell Western ALK1 and ALK2 Assays in 384-Well Plate Format.
# We also optimized cell-based In-cell Western assays for measurements of ALK1 and ALK2 activities that were used to determine compound activities in these two kinases. The cell lines and agonists used were same as described in above cell-based HTRF ALK1 and ALK2 assays. The initial cell plating and compound treatment were also same. The main difference is the detection of phosphorylation status of SMAD1. In t-cell Western assay, the cells were fixed and phosphorylation status of SMAD1 was detected by the ELISA instead of using the HTRF assay kit in above assay.
# HyClone Fetal Bovine Serum was obtained from GE healthcare life sciences (Logan, Utah). BMP6 and BMP9 were purchased from R&D System (R&D). Anti-P-SMAD 1/5/8 rabbit mAb and anti-rabbit IgG, HRP-Linked antibody were purchased from Cell Signaling Technology (Danvers, Mass.). BioFX Chemiluminescent Ultra-Sensitive HRP Microwell Substrate ECL Reagent was obtained from SurModics (Edina, Minn.). The compound plates and the white solid MB assay plates were from Greiner Bio-one (Monroe, N.C.).
# Similarly as described in above HTRF cell-based assay, this assay was performed in 384 well plate format. […] Pre-starved cells were then plated in 384 well plate in the starvation medium (containing in 0.1% FBS). After 4 hours, compound dilutions in DMSO were added to the assay plate and incubated for 30 minutes. The assay plate was then added with BMP6 for C2C12 cells or BMP9 for BAOEC cells and incubated for 30 minutes.
# The cells were washed in the plate washer with PBS and blocked with 2% BSA in PBS for 1 h at room temperature on the rotator. After removing the blocking reagent, the cells were incubated with the anti-p-SMAD1 antibody in 2% BSA in PBS for overnight at 4° C. on rotator. The cells were washed with PBS in the plate washer and incubated with HRP conjugated second antibody in 2% BSA in PBS for 1 hour at room temperature. After a cell wash with PBS, ECL detection reagent was added and the plate was read in the luminesce mode in the ViewLux plate reader.
row,SMILES,IC50
1,"NS(=O)(=O)c1ccc(-c2cnn3cc(-c4ccc(CCN5CCCCC5)cc4)cnc23)c2ccccc12 [Compound 54, 4-(6-(4-(2-(piperidin-1-yl)ethyl)phenyl)pyrazolo[1,5-a]pyrimidin-3-yl)naphthalene-1-sulfonamide]",240 nM and 300 nM and 170 nM and 160 nM
2,"CC[S+](=O)([O-])c1cccc(-c2cnn3cc(-c4ccc(N5[C@H](C)CNC[C@@H]5C)cc4)cnc23)c1 [Compound 104, 6-(4-((2R,6S)-2,6-dimethylpiperazin-1-yl)phenyl)-3-(3-(ethylsulfonyl)phenyl)pyrazolo[1,5-a]pyrimidine]",96 nM and 70 nM
3,C[S+](=O)([O-])c1cccc(-c2cnn3cc(-c4ccc(OCCN5CCCCC5)cc4)cnc23)c1 [Compound 109],190 nM and 300 nM
4,"CC(C)S(=O)(=O)c1cccc(-c2cnn3cc(-c4ccc(CCN5CCCCC5)cc4)cnc23)c1 [Compound 113, 3-(3-(isopropylsulfonyl)phenyl)-6-(4-(2-(piperidin-1-yl)ethyl)phenyl)pyrazolo[1,5-a]pyrimidine]",360 nM and 220 nM
5,"CC(C)S(=O)(=O)c1cccc(-c2cnn3cc(-c4ccc(N5[C@H](C)CNC[C@@H]5C)cc4)cnc23)c1 [Compound 114, 6-(4-((2R,6S)-2,6-dimethylpiperazin-1-yl)phenyl)-3-(3-(isopropylsulfonyl)phenyl)pyrazolo[1,5-a]pyrimidine]",110 nM and 88 nM
6,"CS(=O)(=O)c1cccc(-c2cnn3cc(-c4ccc(CN5CCCCC5)cc4)cnc23)c1 [Compound 123, 3-(3-(methylsulfonyl)phenyl)-6-(4-(piperidin-1-ylmethyl)phenyl)pyrazolo[1,5-a]pyrimidine]",300 nM and 100 nM

# Results, then the compound that gave them:
row,IC50,SMILES
1,180 nM and 170 nM,"C[C@@H]1CNC[C@H](C)N1c1ccc(-c2cnc3c(-c4cccc([S+](=O)([O-])C5CC5)c4)cnn3c2)cc1 [Compound 111, 3-(3-(cyclopropylsulfonyl)phenyl)-6-(4-((2R,6S)-2,6-dimethylpiperazin-1-yl)phenyl)pyrazolo[1,5-a]pyrimidine]"
2,57 nM and 56 nM,"CC(O)c1cccc(-c2cnn3cc(-c4ccc(OC5(CN6CCCCC6)CC5)cc4)cnc23)c1 (stereo not shown) [Compound 143, 1-(3-(6-(4-(1-(piperidin-1-ylmethyl)cyclopropoxy)phenyl)pyrazolo[1,5-a]pyrimidin-3-yl)phenyl)ethanol]"

# Test system: not listed separately
# Assay: Cell-based assay, TGFb1 (Cell IC50)
# Settings: not given
row,SMILES,IC50 [nM]
1,"C[C@@H]1CNC[C@H](C)N1c1ccc(-c2cnc3c(-c4cccc5c(C(N)=O)cccc45)cnn3c2)cc1 [Compound 10, 5-(6-(4-((2S,6R)-2,6-dimethylpiperazin-1-yl)phenyl)pyrazolo[1,5-a]pyrimidin-3-yl)-1-naphthamide]",353
2,"CC(C)(CN1CCCCC1)Oc1ccc(-c2cnc3c(-c4cccc5c(C(N)=O)cccc45)cnn3c2)cc1 [Compound 18, 5-(6-(4-((2-methyl-1-(piperidin-1-yl)propan-2-yl)oxy)phenyl)pyrazolo[1,5-a]pyrimidin-3-yl)-1-naphthamide]",270
3,"CC(O)c1cccc(-c2cnn3cc(-c4ccc(N5[C@H](C)CNC[C@@H]5C)cc4)cnc23)c1 (stereo partly drawn) [Compound 83, 1-(3-(6-(4-((2R,6S)-2,6-dimethylpiperazin-1-yl)phenyl)pyrazolo[5-a]pyrimidin-3-yl)phenyl)ethanol]",956

# Results, then the compound that gave them:
row,IC50 [nM],SMILES
1,2660,"N/C(=N/O)c1ccc(-c2cnn3cc(-c4ccc(N5CCNCC5)cc4)cnc23)c2ccccc12 [Compound 15, N′-hydroxy-4-(6-(4-(piperazin-1-yl)phenyl)pyrazolo[1,5-a]pyrimidin-3-yl)-1-naphthimidamide]"
2,100000,"C[S+](=O)([O-])c1cccc(-c2cnn3cc(-c4ccc(OC5(CN6CCCCC6)COC5)cc4)cnc23)c1 [Compound 93, 3-(3-(methylsulfonyl)phenyl)-6-(4-((3-(piperidin-1-ylmethyl)oxetan-3-yl)oxy)phenyl)pyrazolo[1,5-a]pyrimidine]"
